# Reference: article PMC5840523, “Assessment of a pretomanid analogue library for African trypanosomiasis: Hit-to-lead studies on 6-substituted 2-nitro-6,7-dihydro-5H-imidazo[2,1-b][1,3]thiazine 8-oxides” (Bioorganic & Medicinal Chemistry Letters, 2018)
# Like-named read-outs stand apart in the source and are kept apart here.
# What was measured:
# T. b. brucei 427 [1] = experiment: T. b. brucei 427 growth inhibition (Scynexis); type: cell-based, Trypanosoma brucei brucei; conditions: for Selectivity Index: L929 vs T. b. brucei; for IC50: Trypanosoma brucei, growth inhibition of T. b. brucei 427, mean ± SD
# L929 mouse fibroblasts = experiment: Cytotoxicity toward L929 mouse fibroblasts (Scynexis); type: cell-based
# Mouse liver S9 stability = type: in vitro ADME; conditions: CD-1, mouse, mouse liver S9 subcellular fraction, half-life in mouse liver S9 fraction; read-out: Mouse S9 t1/2
# [2] = Kinetic aqueous solubility in pH 7.4 PBS; type: physicochemical
# From the text: Table 1 Inhibitory potency, metabolic stability, aqueous solubility, and MDCK-MDR1 cell permeability for 15 screening hits against T. b. brucei. | column: Solubility ^c / (µg/mL)
# [3] = Mouse pharmacokinetics (plasma, whole blood, brain); type: in vivo, male CD-1 mice; conditions: male, CD-1, mouse; for bioavailability: po; for Vd: read-out: Vdss; for half-life: read-out: t1/2 (converted)
# Experimental: In order to determine the suitability of the more permeable hits for in vivo efficacy studies, we first measured their aqueous solubilities, and their tendencies to metabolise, following a 1 h incubation with CD-1 mouse liver S9 subcellular fractions.[14] […] This led us to probe their in vivo pharmacokinetic (PK) profiles in mice, examining concentration levels in plasma, whole blood and brain tissue following both intravenous and oral administration (Table 2; for further experimental details, see the Supporting Information). […]
# Mouse Pharmacokinetics. The in-life portion of PK testing was carried out by ViviSource Laboratories, Inc., Mass achusetts, USA, and PK samples were anal ysed by Sc ynexis, Inc.
# Test compounds (9, 12, 17, and 19) w er e each administered as single doses to groups of 10 male CD-1 mice by bolus intravenous injection or oral gavage. Intravenous dosing (at a nominal dose of 2 mg/kg) emplo yed a solution vehicle comprising either 20% EtOH, 20% propylene gl ycol, and 30% PEG -400 in normal saline (for powders 9, 17, and 19) or 0.5% (hydrox yprop yl)meth ylcellulose, 0.4% Tween 80, 0.5% benz yl alcohol, and 20% DMSO i n deionised water (for oil 12). […]
# in 0.5% methylcellulose, 0.08% Tween 80 in water ( ex cept fo r oil 12, where the formulation additionally contained 20% DMSO). […]
# T. b. brucei 427 [4] = experiment: T. b. brucei growth inhibition (University of Antwerp); type: cell-based, Trypanosoma brucei brucei; conditions: T. b. brucei 427, mean of 2 to 5 determinations, read-out: IC50 T. b. bruc
# T. b. rhodesiense = T. b. rhodesiense growth inhibition (University of Antwerp); type: cell-based, Trypanosoma brucei rhodesiense; conditions: mean of 2 to 5 determinations, read-out: IC50 T. b. rhod
# Trypanosoma cruzi = experiment: T. cruzi growth inhibition (University of Antwerp); type: cell-based; conditions: mean of 2 to 5 determinations
# Leishmania infantum = experiment: L. infantum growth inhibition (University of Antwerp); type: cell-based; conditions: mean of 2 to 5 determinations
# [5] = tested on: human lung fibroblasts (MRC-5 cells); experiment: Cytotoxicity toward MRC-5 cells (University of Antwerp); type: cell-based; conditions: Homo sapiens, MRC5, cytotoxicity toward human lung fibroblasts
# in vitro = conditions: dog, MDCK-MDR1, Permeability Papp
# [6] = brain, from dose normalised AUClast values, read-out: F (oral bioavailability)
# [7] = over the three sampling sites (plasma, whole blood, brain), read-out: oral bioavailability
# [8] = whole blood, from dose normalised AUClast values, read-out: F (oral bioavailability)
# [9] = brain, intravenous, corrected doses 0.5, 1.1, 2.9, 2.0 mg/kg for 9, 12, 17, 19
# [10] = brain, oral, corrected doses 62, 50, 78, 49 mg/kg for 9, 12, 17, 19
# [11] = plasma, intravenous, corrected doses 0.5, 1.1, 2.9, 2.0 mg/kg for 9, 12, 17, 19
# [12] = plasma, oral, corrected doses 62, 50, 78, 49 mg/kg for 9, 12, 17, 19
# [13] = whole blood, intravenous, corrected doses 0.5, 1.1, 2.9, 2.0 mg/kg for 9, 12, 17, 19
# [14] = whole blood, oral, corrected doses 62, 50, 78, 49 mg/kg for 9, 12, 17, 19
smiles,measurement,setting,value
O=[N+]([O-])c1cn2c(n1)[S+]([O-])CC(OCc1ccc(OCc3ccccc3)cc1)C2 (stereo not drawn) [Compound 9],Selectivity Index,T. b. brucei 427 [1],>667
same,IC50,T. b. brucei 427 [1],0.015 ± 0.005 µg/mL
same,IC50,L929 mouse fibroblasts,> 10 µg/mL
same,half-life,Mouse liver S9 stability,173 min
same,solubility,[2],5.4 µg/mL
same,bioavailability,"[3]; 0.5 mg/kg, plasma, from dose normalised AUClast values, read-out: F (oral bioavailability)",1.4%
same,bioavailability,[3]; [6],0.8%
same,bioavailability,[3]; [7],< 1.5%
same,bioavailability,[3]; [8],0.8%
same,AUC(0-t),[3]; [9],304 ng·h/mL
same,clearance,[3]; [9],25 mL/min/kg
same,Vd,[3]; [9],1.2 L/kg
same,half-life,[3]; [9],96 min
same,AUC(0-t),[3]; [10],290 ng·h/mL
same,Cmax,[3]; [10],60 ng/mL
same,Tmax,[3]; [10],2 h
same,half-life,[3]; [10],192 min
same,AUC(0-t),[3]; [11],505 ng·h/mL
same,clearance,[3]; [11],16.2 mL/min/kg
same,Vd,[3]; [11],0.59 L/kg
same,half-life,[3]; [11],25.8 min
same,AUC(0-t),[3]; [12],869 ng·h/mL
same,Cmax,[3]; [12],200 ng/mL
same,Tmax,[3]; [12],2 h
same,half-life,[3]; [12],222 min
same,AUC(0-t),[3]; [13],489 ng·h/mL
same,clearance,[3]; [13],14.5 mL/min/kg
same,Vd,[3]; [13],0.33 L/kg
same,half-life,[3]; [13],25.2 min
same,AUC(0-t),[3]; [14],494 ng·h/mL
same,Cmax,[3]; [14],110 ng/mL
same,Tmax,[3]; [14],2 h
same,half-life,[3]; [14],318 min
same,IC50,T. b. brucei 427 [4]; Trypanosoma brucei,30 nM
same,IC50,"T. b. rhodesiense; Trypanosoma brucei, RHODESIENSE",27 nM
same,IC50,Trypanosoma cruzi; Trypanosoma cruzi,120 nM
same,IC50,Leishmania infantum; Leishmania infantum,3.4 µM
same,IC50,[5],64 µM
same,"Papp at 1 h, 3 µM",in vitro,77.1 ×10⁻⁶ cm/s
O=[N+]([O-])c1cn2c(n1)[S+]([O-])CC(OCc1ccc(OC(F)(F)F)cc1)C2 (stereo not drawn) [Compound 12],Selectivity Index,T. b. brucei 427 [1],>63
same,IC50,T. b. brucei 427 [1],0.16 ± 0.07 µg/mL
same,IC50,L929 mouse fibroblasts,> 10 µg/mL
same,half-life,Mouse liver S9 stability,> 350 min
same,solubility,[2],39 µg/mL
same,bioavailability,[3]; [6],55%
same,bioavailability,[3]; [7],52 to 55%
same,bioavailability,"[3]; plasma, from dose normalised AUClast values, read-out: F (oral bioavailability)",55%
same,bioavailability,[3]; [8],52%
same,AUC(0-t),[3]; [9],2850 ng·h/mL
same,clearance,[3]; [9],6.67 mL/min/kg
same,Vd,[3]; [9],1.3 L/kg
same,half-life,[3]; [9],138 min
same,AUC(0-t),[3]; [10],71200 ng·h/mL
same,Cmax,[3]; [10],14000 ng/mL
same,Tmax,[3]; [10],4 h
same,half-life,[3]; [10],414 min
same,AUC(0-t),[3]; [11],2090 ng·h/mL
same,clearance,[3]; [11],8.67 mL/min/kg
same,Vd,[3]; [11],1.6 L/kg
same,half-life,[3]; [11],150 min
same,AUC(0-t),[3]; [12],51900 ng·h/mL
same,Cmax,[3]; [12],9300 ng/mL
same,Tmax,[3]; [12],4 h
same,half-life,[3]; [12],414 min
same,AUC(0-t),[3]; [13],2700 ng·h/mL
same,clearance,[3]; [13],6.5 mL/min/kg
same,Vd,[3]; [13],1.7 L/kg
same,half-life,[3]; [13],558 min
same,AUC(0-t),[3]; [14],63500 ng·h/mL
same,Cmax,[3]; [14],8600 ng/mL
same,Tmax,[3]; [14],4 h
same,half-life,[3]; [14],348 min
same,IC50,T. b. brucei 427 [4],270 nM
same,IC50,T. b. rhodesiense,250 nM
same,IC50,Trypanosoma cruzi,1500 nM
same,IC50,Leishmania infantum,16 µM
same,IC50,[5],60 µM
same,"Papp at 1 h, 3 µM",in vitro,79.8 ×10⁻⁶ cm/s
